Laboratory results from PubChem BioAssay AID248 (DTP/NCI, 2004).
“And” between values parts separate entries of the source, which are not always exact repeats. Equal values may be shown once. Inconclusive results and toxic doses are left out. Cut-off read from the data, not from the text of the source: active = T/C of 150% or more; inactive = T/C below 125%. Peptide text beside a SMILES is read from it. * marks the point of attachment. Cbz = O=C(OCc1ccccc1)*

Tested on: L1210 leukemia ip in BDF1 mice, survival T/C
Test: NCI In Vivo Anticancer Drug Screen. Data for tumor model L1210 Leukemia (intraperitoneal) in B6D2F1 (BDF1) mice
Conditions: endpoint: mean survival time, higher = longer survival
How it was run: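 Survival endpoint. Drug-treated group vs vehicle group, expressed as T divided by C. Tumor passaged by transplantation.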

[1] = dose: 100.0 mg/kg/injection, schedule: Q04DX003 (ip), vehicle: saline
[2] = dose: 200.0 mg/kg/injection, schedule: Q04DX003 (ip), vehicle: saline
[3] = dose: 400.0 mg/kg/injection, schedule: Q04DX003 (ip), vehicle: saline
[4] = dose: 100.0 mg/kg/injection, schedule: Q01DX001 (ip), vehicle: Klucel (hydroxypropylcellulose) (HPC)
[5] = dose: 200.0 mg/kg/injection, schedule: Q01DX001 (ip), vehicle: Klucel (hydroxypropylcellulose) (HPC)
[6] = dose: 100.0 mg/kg/injection, schedule: Q01DX001 (ip), vehicle: carboxymethylcellulose (CMC)
[7] = dose: 200.0 mg/kg/injection, schedule: Q01DX001 (ip), vehicle: carboxymethylcellulose (CMC)
[8] = dose: 400.0 mg/kg/injection, schedule: Q01DX001 (ip), vehicle: carboxymethylcellulose (CMC)
[9] = dose: 50.0 mg/kg/injection, schedule: Q01DX009 (ip), vehicle: Klucel (hydroxypropylcellulose) (HPC)

Measured: T/C

C[n+]1ccccc1/C=C/c1ccc(O)c2ccccc12
inactive: dose: 15.0 mg/kg/injection, schedule: Q01DX001 (ip), vehicle: saline 97 % of control | dose: 30.0 mg/kg/injection, schedule: Q01DX001 (ip), vehicle: saline 91 % of control | dose: 60.0 mg/kg/injection, schedule: Q01DX001 (ip), vehicle: saline 103 % of control | dose: 75.0 mg/kg/injection, schedule: Q01DX001 (ip), vehicle: saline 103 % of control

CCN(CC)CCNCc1ccccc1
inactive: dose: 25.0 mg/kg/injection, schedule: Q01DX003 (ip), vehicle: saline 99 % of control | dose: 50.0 mg/kg/injection, schedule: Q01DX003 (ip), vehicle: saline 97 % of control | dose: 75.0 mg/kg/injection, schedule: Q01DX003 (ip), vehicle: saline 99 % of control | dose: 75.0 mg/kg/injection, schedule: Q04DX003 (ip), vehicle: saline 97 % of control

CNCCOC(=O)c1cc([N+](=O)[O-])c(C)s1
inactive: dose: 100.0 mg/kg/injection, schedule: Q01DX001 (ip), vehicle: saline 94 % of control | dose: 200.0 mg/kg/injection, schedule: Q01DX001 (ip), vehicle: saline 103 % of control | dose: 400.0 mg/kg/injection, schedule: Q01DX001 (ip), vehicle: saline 100 % of control

COC(=O)CNC(=O)CNC(=O)OCc1ccccc1 (Cbz-Gly-Gly-OMe)
inactive: dose: 100.0 mg/kg/injection, schedule: Q01DX009 (ip), vehicle: saline 102 % of control | [1] 102 % of control | dose: 200.0 mg/kg/injection, schedule: Q01DX009 (ip), vehicle: saline 100 % of control | [2] 98 % of control | dose: 400.0 mg/kg/injection, schedule: Q01DX009 (ip), vehicle: saline 102 % of control | [3] 107 % of control

NC(N)=N/N=C(C(=O)O)/C(=N\N=C(N)N)C(=O)O
inactive: dose: 30.0 mg/kg/injection, schedule: Q01DX Z (oral), vehicle: carboxymethylcellulose (CMC) 101 % of control | dose: 60.0 mg/kg/injection, schedule: Q01DX Z (oral), vehicle: carboxymethylcellulose (CMC) 101 % of control | dose: 120.0 mg/kg/injection, schedule: Q01DX Z (oral), vehicle: carboxymethylcellulose (CMC) 101 % of control | dose: 240.0 mg/kg/injection, schedule: Q01DX Z (oral), vehicle: carboxymethylcellulose (CMC) 109 % of control | dose: 480.0 mg/kg/injection, schedule: Q01DX Z (oral), vehicle: carboxymethylcellulose (CMC) 106 % of control | dose: 960.0 mg/kg/injection, schedule: Q01DX Z (oral), vehicle: carboxymethylcellulose (CMC) 106 % of control

CC(=O)Nc1ccc(Cc2[nH]c(=O)[nH]c(=O)c2Br)cc1
inactive: [4] 93 % of control | [5] 93 % of control

NC(N)=N/N=C/C(=N\N=C(N)N)C(F)(F)F
inactive: dose: 15.0 mg/kg/injection, schedule: Q01DX Z (ip), vehicle: saline 102 % of control | dose: 30.0 mg/kg/injection, schedule: Q01DX Z (ip), vehicle: saline 98 % of control | dose: 60.0 mg/kg/injection, schedule: Q01DX Z (ip), vehicle: saline 101 % of control and 108 % of control | dose: 120.0 mg/kg/injection, schedule: Q01DX Z (ip), vehicle: saline 93 % of control and 106 % of control | dose: 120.0 mg/kg/injection, schedule: Q01DX Z (oral), vehicle: saline 96 % of control | dose: 240.0 mg/kg/injection, schedule: Q01DX Z (ip), vehicle: saline 98 % of control | dose: 240.0 mg/kg/injection, schedule: Q01DX Z (oral), vehicle: saline 104 % of control | dose: 480.0 mg/kg/injection, schedule: Q01DX Z (oral), vehicle: saline 98 % of control | dose: 960.0 mg/kg/injection, schedule: Q01DX Z (oral), vehicle: saline 98 % of control

O=C1/C(=C(/c2ccccc2)N2CCOCC2)Cc2ccccc21
inactive: dose: 25.0 mg/kg/injection, schedule: Q04DX003 (ip), vehicle: saline with Tween-80 90 % of control | dose: 100.0 mg/kg/injection, schedule: Q04DX003 (ip), vehicle: saline with Tween-80 95 % of control

CCS(=O)(=O)c1ccc(NC(=O)OC(C)(C)C)cc1
inactive: [6] 94 % of control | [7] 94 % of control | [8] 100 % of control

O=C1OCC/C1=C\c1cccc(/C=C2\CCOC2=O)c1
inactive: dose: 25.0 mg/kg/injection, schedule: Q04DX002 (ip), vehicle: saline with Tween-80 92 % of control | dose: 50.0 mg/kg/injection, schedule: Q04DX002 (ip), vehicle: saline with Tween-80 95 % of control | dose: 100.0 mg/kg/injection, schedule: Q04DX002 (ip), vehicle: saline with Tween-80 106 % of control | dose: 200.0 mg/kg/injection, schedule: Q04DX002 (ip), vehicle: saline with Tween-80 100 % of control

CCOC(=O)CNC(=O)Oc1cc(C)c(Cl)cc1C
inactive: [6] 100 % of control and 110 % of control | dose: 100.0 mg/kg/injection, schedule: Q01DX009 (ip), vehicle: carboxymethylcellulose (CMC) 89 % of control | dose: 100.0 mg/kg/injection, schedule: Q04DX002 (ip), vehicle: carboxymethylcellulose (CMC) 93 % of control and 96 % of control | dose: 100.0 mg/kg/injection, schedule: Q04DX003 (ip), vehicle: carboxymethylcellulose (CMC) 101 % of control and 90 % of control | [7] 106 % of control and 109 % of control | dose: 200.0 mg/kg/injection, schedule: Q01DX009 (ip), vehicle: carboxymethylcellulose (CMC) 95 % of control | dose: 200.0 mg/kg/injection, schedule: Q04DX002 (ip), vehicle: carboxymethylcellulose (CMC) 98 % of control and 99 % of control | dose: 200.0 mg/kg/injection, schedule: Q04DX003 (ip), vehicle: carboxymethylcellulose (CMC) 94 % of control and 103 % of control | [8] 102 % of control and 103 % of control | dose: 400.0 mg/kg/injection, schedule: Q01DX009 (ip), vehicle: carboxymethylcellulose (CMC) 100 % of control | dose: 400.0 mg/kg/injection, schedule: Q04DX002 (ip), vehicle: carboxymethylcellulose (CMC) 95 % of control and 99 % of control | dose: 400.0 mg/kg/injection, schedule: Q04DX003 (ip), vehicle: carboxymethylcellulose (CMC) 97 % of control and 87 % of control

NN(c1ccccc1)c1ccc2ccccc2c1
inactive: [9] 115 % of control | dose: 100.0 mg/kg/injection, schedule: Q01DX009 (ip), vehicle: Klucel (hydroxypropylcellulose) (HPC) 100 % of control | dose: 100.0 mg/kg/injection, schedule: Q04DX003 (ip), vehicle: Klucel (hydroxypropylcellulose) (HPC) 93 % of control | dose: 200.0 mg/kg/injection, schedule: Q01DX009 (ip), vehicle: Klucel (hydroxypropylcellulose) (HPC) 103 % of control | dose: 200.0 mg/kg/injection, schedule: Q04DX003 (ip), vehicle: Klucel (hydroxypropylcellulose) (HPC) 93 % of control | dose: 400.0 mg/kg/injection, schedule: Q04DX003 (ip), vehicle: Klucel (hydroxypropylcellulose) (HPC) 86 % of control

O=C1c2cccc3cc([N+](=O)[O-])cc(c23)C(=O)N1CCCN(CCO)CCO
inactive: dose: 12.5 mg/kg/injection, schedule: Q01DX009 (ip), vehicle: Klucel (hydroxypropylcellulose) (HPC) 104 % of control | dose: 25.0 mg/kg/injection, schedule: Q01DX009 (ip), vehicle: Klucel (hydroxypropylcellulose) (HPC) 105 % of control | [9] 91 % of control

CCN(CC)CCOC(=O)c1cc(=O)n(CCC(C)C)c2ccccc12
inactive: [1] 113 % of control | [2] 107 % of control | [3] 101 % of control

OC1(c2ccc(Cl)cc2)CCN(C2CC2c2ccccc2)CC1 (stereo unspecified)
inactive: [4] 98 % of control | [5] 97 % of control | dose: 400.0 mg/kg/injection, schedule: Q01DX001 (ip), vehicle: Klucel (hydroxypropylcellulose) (HPC) 98 % of control

Cc1ccc(Cl)cc1NC(=O)OCCCl
inactive: dose: 100.0 mg/kg/injection, schedule: Q01DX009 (ip), vehicle: saline with Tween-80 95 % of control | [1] 97 % of control | dose: 200.0 mg/kg/injection, schedule: Q01DX009 (ip), vehicle: saline with Tween-80 91 % of control | [2] 100 % of control | dose: 400.0 mg/kg/injection, schedule: Q01DX009 (ip), vehicle: saline with Tween-80 91 % of control | [3] 95 % of control
